| Structure (SMILES) | melting point [°C] |
| --- | --- |
| CC(=O)Nc1ccc(OCCN(CC(=O)c2ccc(OCc3ccccc3)c(OCc3ccccc3)c2)Cc2ccccc2)cc1 | 104 to 106 |
| Fc1ccc(C(F)(F)F)cc1-c1cccn2nc(Cl)nc12 | 88 to 89 |
| CC(C)OC(=O)C=CC1C(C(=O)O)C1(C)C (configuration not stated) | 98 |
| Cc1c(Br)c(=O)n(C2CCCCC2)c(=O)n1N=Cc1ccc(Cl)c(Cl)c1 | 188 to 189 |
| CCCCCOc1ccc(-c2ccc(CC(=O)c3ccccc3)cc2)cc1 | 86 |
| O=[N+]([O-])c1cnc2ccc(Sc3ccccc3)cn12 | 108 to 109 |
| CCn1ccc(-c2ccc(C(=O)N3Cc4cccn4Cc4ccccc43)cc2)n1 | 180 to 183 |
| CC(C)(C)c1cn(N=Cc2cccnc2)c(=O)[nH]1 | 255 to 256 |
| COc1cc([N+](=O)[O-])ccc1COP(N)(=O)N(CCCl)CCCl (configuration not stated) | 102 to 104 |
| CC(C)(C)NCC(O)COc1ccccc1CCCc1cccc2[nH]ccc12 (configuration not stated) | 96 |
| O=c1[nH]c(N[N+](=O)[O-])ncc1Cc1ccncc1 | 228 to 229 |
| O=C(N=c1sc2cc(OC(F)(F)F)ccc2n1CCCO)C(F)(F)F | 144 |
| c1csc(-c2ccc(-c3cccs3)c3nsnc23)c1 | 121 to 122 |
| CCCCC[C@H]1CC[C@H](c2ccc(F)c(F)c2)CC1 | -9.5 |
| O=[N+]([O-])c1cc(C(F)(F)F)ccc1SCc1ccccc1 | 132 to 136 |
| O=C1C=CC2(C=C1)N=C(N1CCN(Cc3cccc(C(F)(F)F)c3)CC1)C=C2c1ccccc1 | 135 |
| c1ccc2c(c1)C[C@H]1CSC(=Nc3cc[nH]n3)N1C2 | 161 |
| c1cnc2ccc(Cn3nnc4ccc(-c5cn[nH]c5)nc43)cc2c1 | 215 to 218 |
| Cn1nc(-c2cnc3[nH]cc(C(=O)NC4CCS(=O)(=O)C4)c3n2)c2ccc(Cl)cc21 (configuration not stated) | 383 to 385 |
| Cc1ccc(/C=C/c2ccccc2[N+](=O)[O-])c([N+](=O)[O-])c1 | 170 to 171 |
| CN(C)c1cccc2c(S(=O)(=O)Nc3ccc(Cl)nc3)cccc12 | 145 to 146 |
| CC(O)Cn1nc(-c2cnc3[nH]cc(C(=O)NC(C)C(=O)N4CC(C#N)C4)c3n2)c2ccc(Cl)cc21 (configuration not stated) | 160 to 165 |
| CC(C)(O)c1ccc(CNC(=O)c2cccnc2Oc2ccc3ncoc3c2)cc1 | 92 to 94 |
| OC1(CN2c3ccccc3Sc3ccccc32)CN2CCC1CC2 (configuration not stated) | 127 to 130 |
| COc1ccc(-c2sc3cc(OC)ccc3c2C(=O)c2ccc(Br)cc2)cc1 | 127 to 129 |
| CC(C)(c1ccc(Oc2cccc(N)c2)cc1)c1cccc(C(C)(C)c2ccc(Oc3cccc(N)c3)cc2)c1 | 94 to 96 |
| Cc1nc(-c2ccccc2)c(CBr)o1 | 75 to 76 |

| Structure (SMILES) | melting point [°C] |
| --- | --- |
| CCCCn1c(C)c(C2(c3c(C)n(CCCC)c4ccccc34)NNC(=O)c3ccccc32)c2ccccc21 | 206 |
| c1ccc(N2CCN(Cc3coc4ccccc34)CC2)cc1 | 103 to 105 |
| CC(C)C[C@H](NC(=O)[C@H](Cc1c[nH]cn1)NC(=O)[C@H](Cc1cccc2ccccc12)NC(=O)OCc1ccccc1)[C@@H](O)CC(=O)OCc1ccccc1 | 102 to 109 |
| O=C(O)Cc1sc2nc3ncccc3n2c1-c1ccc(Cl)cc1 | 250 to 252 |
| CC(Oc1ccc(Oc2ncc(C(F)(F)F)cc2F)cc1)C(=O)Nc1ccc(C(F)(F)F)cc1 (configuration not stated) | 127 to 128 |
| c1cn2nc(N3CCOCC3)c3c(c2n1)CCCC3 | 160 to 161 |
| CCNc1nc2ccccc2n2c(C(C)C)nnc12 | 209 to 211 |
| CCN1CCN(c2ccc(Br)nc2)CC1 | 30 to 31 |
| C=Cc1cc(Cl)c(N)c(Cl)c1 | 63 |
| c1ccc2scnc2c1 | 134 to 135 |
| N#Cc1cc(F)c(N)c(F)c1 | 110 to 111 |
| CC1(C)Oc2ccc(OCc3nc4cc(F)c(F)cc4s3)cc2[C@H](O)[C@@H]1c1cccc(NS(=O)(=O)C(F)(F)F)c1 | 191 to 193 |
| CNC(=O)N(C)C1=NN(C(=O)C(C)(C)C)C(C)S1 (configuration not stated) | 168 to 169 |
| C(=C\c1nc(COc2ccc(CCCn3ccnc3)cc2)cs1)/c1ccccc1 | 129 to 130 |
| FC(F)(F)c1cccc(C2=NOC(CNC(=S)N3CCOCC3)C2)c1 (configuration not stated) | 118 to 120 |
| COc1ccc(S(=O)(=O)n2ccc3cccc(-c4ccc(C#N)cc4)c32)cc1 | 164 to 166 |
| O=C(O)C1=Cc2ccccc2OC1C(F)(F)F (configuration not stated) | 152 to 153 |
| CC(=O)N(O)C(C)c1cc2ccccc2o1 (configuration not stated) | 130 to 132 |
| O=C(OC1c2nccnc2C(=O)N1c1ccc2ccc(Cl)cc2n1)N1CCNCC1 (configuration not stated) | 242 |
| c1cc(CN2CCCCC2)cc(OCCCNc2nccc3ccccc23)c1 | 103 to 105 |
| CC1Oc2ccc(CN3CC=C(c4ccccc4)CC3)cc2NC1=O (configuration not stated) | 248 to 255 |
| Cc1ccc(-c2ncc3c(n2)CCCC3)nc1-c1ccc(C#N)cc1 | 178 to 182 |
| ClCCc1nc2c(ccc3ccccc32)o1 | 80 to 82 |
| COc1cc(CSc2ccc(O)cc2)cc(OC)c1OC | 139 to 140 |
| CCCCN(C)CCOc1ccc(Cn2c(-c3ccc(O)cc3)c(C)c3cc(O)ccc32)cc1 | 102 to 107 |
| Cn1nc(-c2cc(N)c(F)cc2F)c(Cl)c1C(F)(F)F | 82 |
| Cn1ncnc1COc1nc2c(cc1-c1ccco1)nnn2-c1ccccc1F | 170 to 173 |

Now from value to compound:

| melting point [°C] | Structure (SMILES) |
| --- | --- |
| 137 to 138 | COc1ccc(CN2C(=O)[C@H](NC(=O)COc3ccccc3)[C@@H]2c2ccccc2C2OCCO2)c(OC)c1 (relative stereo) |
| 174 to 176 | Cc1cccc(C(=O)O)c1NC(=O)COc1ccccc1 |
| 121 to 123 | CC(C)(C)OC(=O)c1ccc2c(c1)NCc1ccccc1O2 |
| 139 | COC(=O)COc1ccccc1Oc1cc(NC(C)=O)c(F)cc1Cl |
| 115 to 117 | CCOC(=O)c1c(C(F)(F)F)nc(C(F)(F)F)c(C(=O)O)c1OCC |
| 269 to 270 | CSc1sc(C(N)=O)c2c1-c1nc(C)sc1CC2 |
| 56 to 57 | COc1cc2c(c(N(C(C)=O)C(C)=O)c1)CC(C)O2 (configuration not stated) |
| 174 to 176 | Cc1cc(CCc2ccc(-c3ccc(C(F)(F)F)cc3)cc2)ccc1OCC(=O)O |
| 72 to 73 | CCCCCCCCCCCCCCCCCC(=O)c1ccc(O)c(C(=O)OC(C)C)c1 |
| 155 to 157 | CCOC(=O)Cc1ccc(NC(=O)C(Cn2ccnc2)NS(=O)(=O)c2ccc(F)cc2)cc1 (racemic) |
| 91 to 93 | CCOC(=O)c1cc(-n2c(OC)nc(C(F)(F)F)cc2=O)c(F)cc1Cl |
| 264 | CN(C)C1CN(c2cc3nc4c(cc3cc2F)c(=O)c(C(=O)O)cn4C2CC2)C1 |
| 109 to 110 | CCOC(=O)COc1ccc(C=O)cc1NC(=O)c1ccc(OCCCCc2ccccc2)cc1 |
| 94 | COc1cc(C)c(NCCO)cc1[N+](=O)[O-] |
| 79 to 81 | Cc1c(CO)ncnc1N1CCCCC1 |
| 99 to 101 | CCC(=O)NC1CCc2ccccc2C1 (configuration not stated) |
| 177 to 178 | CCN1CCN(NC(=O)c2cc(Cl)c(N)cc2OC)CC1 |
| 242 to 244 | Cc1cc(N2CCc3ccccc32)nc(N)n1 |
| > 260 | Cc1ccc(Oc2ccc(C(=N)NN)cc2)c(O)c1 |
| 94 to 95 | COC(=O)CCC(=O)c1ccc(CCCCNC(C)=O)cc1 |
| 189 to 190 | CCCCn1c(-c2ccccc2)nc(Cl)c1CC(=O)O |
| 120 to 121 | CC(C)(C)OC(=O)N1CC=C(c2ccc(NCc3ccccc3)cc2)CC1 |
| 229 to 230 | CC(C)n1nc(-c2cc(C(N)=O)cnc2-c2ccccc2)ccc1=O |
| 162 to 163 | CC1(C)Oc2ccsc2C(NC(=O)c2ccc(C(F)(F)F)cc2)C1O (configuration not stated) |

| melting point [°C] | Structure (SMILES) |
| --- | --- |
| 138 to 139 | O=C(c1ccco1)c1cnn2c1NCCC2 |
| 156 to 157 | O=C(O)CCc1oc(Sc2ccccc2)nc1-c1ccc(Cl)cc1 |
| 142 to 145 | CCOC(=O)Cc1nn(Cc2ccc(Br)c(Cl)c2)c(=O)c2ccccc12 |
| 93.1 | CN1CCC(=C(c2ccc(F)cc2)c2cccnc2)CC1 |
| 248 to 250 | CCNC(=O)n1cc(F)c(NC(=O)NCc2ccccc2OC)nc1=O |
| 191 to 193 | CC1(C)CON(Cc2ccc(NC(=O)C3CC3)cc2Cl)C1=O |
| 246 to 247 | CC1CCC(=NNc2ccccc2)c2ncc(C(N)=O)c(=O)n21 (configuration not stated) |
| 104 to 106 | COc1ccc(CCc2nc(Br)c(C(F)(F)F)[nH]2)cc1 |
| 185 to 187 | CCNC(=O)c1cc(NC(=O)c2ccccc2)ccc1[Si](C)(C)C |
| 72 to 73 | O=C(O)Cc1csc(NC(=O)C(Oc2ccc(F)cc2)c2ccc(S(=O)(=O)C3CC3)cc2)n1 (configuration not stated) |
| 75 to 77 | COC(=O)c1cccc(NC(=O)C(C)CSC(C)=O)n1 (configuration not stated) |
| 218 to 220 | COc1ccc(Nc2nc(-c3ccccc3)cc(N3CCC(OC(=O)CCC(=O)O)CC3)n2)cc1Cl |
| 150 to 153 | CC(CS)C(=O)N(CC(=O)O)Cc1ccco1 (configuration not stated) |
| 138 to 139 | Cc1cccc(C)c1NC(=O)N1CCCN(C(C)C)C1 |
| 155 to 156 | CCOC(=O)C(O)(CC(=O)c1ccc(-n2ccnc2)cc1)C(=O)OCC |
| 124 | O=C(O)CC1CCCCCCCCCCC1=O (configuration not stated) |
| 223 to 224 | COC(=O)CCC1=C(N)CCC1=O |
| 143 | COC(=O)Cc1nsc(NC(=O)c2ccccc2)n1 |
| 142 | COC1=CC(C)(O)C(CCC(=O)O)C=C1 (configuration not stated) |
| 138 to 140 | COc1ccc2c(c1)CCN1C(=O)[C@H]3CCCN(S(C)(=O)=O)[C@H]3C[C@@H]21 |
| 197 to 199 | CCNc1nc(Cl)c(Cl)c(N2CCN(CC[C@H]3CC[C@H](NC(=O)OC(C)(C)C)CC3)CC2)n1 |
| 246 to 247 | COc1ccc(CC2SC(=O)NC2=O)c2c1N(Cc1ccc([N+](=O)[O-])cc1)C(=O)CC2 (configuration not stated) |
| 159 to 160 | CCC1(CC)OC(=O)Nc2ccccc21 |
| 69 to 72 | O=C(Cn1cnnn1)OCc1ccccc1 |
